Assay results reported in the METLIN SMRT retention time set (Domingo-Almenara et al. 2019).

Assay: gradient 5% acetonitrile 3 min, to 50% in 2 min, to 85% in 15 min, held 3 min, 100 µL/min
Settings: column: Zorbax Extend-C18 2.1 x 50 mm; eluents: water / acetonitrile, 0.1% formic acid
Summary of the method: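 Over 3 months, pure standards in mixtures of ~100 molecules were run by HPLC coupled to a quadrupole time-of-flight mass spectrometer in positive and negative ionization mode. The column was a Zorbax Extend-C18 (2.1 × 50 mm, 1.8 μm) at 100 μL/min, eluted with water and acetonitrile each holding 0.1% formic acid, with 40 μL dead and 900 μL dwell volumes. Retention time was determined from adduct peaks chosen by software and checked manually.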

Compound	RP-LC retention time [s]
O=C(c1ccc(Br)o1)N1CCC(n2cnnc2C2CC2)CC1	631
Cc1ccc(C(O)CN2CCN(c3ccccn3)CC2)cc1 (configuration not stated)	550
CCCCN(C)C(=O)CN1C(=O)CCCc2cc(S(=O)(=O)N3CCC(C)CC3)ccc21	971
CCn1c(=O)c(NCc2ccc(C(C)C)cc2)nc2ccncc21	720
O=S(=O)(NC1CCCCC1n1cc(-c2ccccc2)nn1)c1ccccc1 (configuration not stated)	789
CNC(=O)N1CCCC(c2cccc(C(=O)NC3CCCCCC3)c2)C1 (configuration not stated)	820
O=C(c1ccco1)N1CCN(c2nc(N3CCOCC3)c3n[nH]nc3n2)CC1	598
Cc1ccc(S(=O)(=O)N2CC=C(c3cn(C)c4ncccc34)CC2)cc1	990
Cc1cccc(N(C)S(=O)(=O)c2ccsc2-c2nc(C)no2)c1	978
CC1CCCN(CC2CCN(S(=O)(=O)c3ccc(F)cc3Cl)CC2)C1 (configuration not stated)	673
Cc1nc(Nc2ncc3c(n2)CCCC3=O)nc2c(C)cccc12	620
c1cncc(-c2nnc3sc(-c4ccc5c(c4)OCCO5)nn23)c1	827
Cc1ccc(C)c(N2CCN(S(=O)(=O)c3cc(-c4csc(C)n4)sc3C)CC2)c1	1360
CCC(=O)N1CCC(C(=O)Nc2ccc(S(=O)(=O)N3CCCC3)cc2)CC1	697
Cn1cc(CN2C[C@@H](COc3cccnc3)[C@H](c3ccccn3)C2)cn1	528
CCOC(=O)c1nnc2c(-c3ccc(F)cc3)c(C)nn2c1C	986
O=C(c1cc2c(s1)CCC(C(=O)N1CCN(c3ccccn3)CC1)C2)N1CCOCC1 (configuration not stated)	582
CCOC(=O)c1sc2nc(NC(=O)COc3ccccc3)sc2c1C	1040
O/C(=C\Sc1nnc(COc2ccc(Cl)cc2Cl)o1)c1ccc(F)cc1	915
COc1ccc2c(c1)C1(CCN(C(=O)c3cccc(C)c3)C1)C(=O)N2 (configuration not stated)	738

Compound	RP-LC retention time [s]
COc1ccc(C(=O)N2CCc3cc(-c4csc(C)n4)ccc32)cc1OC	862
CCN(CC)c1nc(C(=O)NCCN2CCN(C)CC2)nc2nc(C)cc(C)c12	542
CC(C)CN1CCN(S(=O)(=O)c2cc(-c3nnc(C4CCCC4)o3)co2)CC1	678
Cc1noc([C@@H]2CN(Cc3cc(F)cc(F)c3)C[C@H]2CO)n1	546
c1cncc(CN2CCc3c(sc4ncnc(N5CCOCC5)c34)C2)c1	649
CC1=C(C(=O)OC(C)C)C(c2cc3c(cc2Br)OCO3)NC(=O)N1 (configuration not stated)	748
O=C1c2ccccc2C(=O)c2c1ccc(C(=O)N1CCN(c3ccccn3)CC1)c2NCCO	616
C#CCC(Cc1cnc2nc(N)nc(N)c2n1)c1ccc(C(=O)N[C@@H](CCC(=O)O)C(=O)O)cc1 (some centres not stated)	619
CCC1CCCCN1C(=O)c1cnc2nc(C)ccc2c1Nc1cc(Cl)ccc1OC (configuration not stated)	731
CCCN1CC(Oc2ccc(-c3noc(-c4cccnc4)n3)cc2)C1	621
CCN1C(=O)CCc2cc(NC(=O)c3ccsc3)ccc21	715
O=C(c1cccnc1)N1CCN(c2cc(-c3cccs3)[nH]n2)CC1	616
CCCCCn1c(=O)c2c(nc3n2CCCCN3c2ccc(OCC)cc2)n(C)c1=O	1190
COc1ccc(CN(C)Cc2cc(=O)c3cc(C)ccc3[nH]2)cc1	603
COc1ccc(-n2c(=O)n(C)c(=O)c3cc(C(=O)Nc4ccc(C(N)=O)cc4)cnc32)cc1	668
CCCN(C)c1nccnc1OC1CCN(C(=O)CC(C)C)C1 (configuration not stated)	835
CCN(CC)S(=O)(=O)c1ccc2c(c1)CC(C(=O)NC1CCCCC1)N2C(C)=O (configuration not stated)	839
CCN1C(=O)C(C)(C(=O)Nc2cc(OC)cc(OC)c2)Oc2cccnc21 (configuration not stated)	868
COCCc1noc(-c2nc(-c3ccc(C)cc3)no2)n1	1120
CCCc1cc(=O)oc2cc(C)cc(OCC(=O)N[C@H](C(=O)O)C(C)C)c12	806

Further lines, results first:

RP-LC retention time [s]	Compound
1120	CCOc1ccc(-n2c(N3CCSC3)nc3cc(C(=O)OC)ccc3c2=O)cc1
1020	Cc1ccccc1-c1nnc(SCC(=O)N2CCC(C)CC2)o1
826	CCN1c2ccc(C)cc2C(=O)NC12CCN(C(=O)c1ccc(F)c(F)c1)CC2
639	CCCn1c(CCNC(=O)c2cccc(Cl)c2)nc2cccnc21
1130	O=c1c2cnn(-c3ccc(F)cc3)c2ncn1Cc1nc(-c2cccc(Br)c2)no1
796	CCn1cnc2c(-c3ccccc3)cn(CC(=O)NCc3ccco3)c2c1=O
876	COc1ccc(C)cc1NC(=O)N1C[C@H](c2nc(-c3ccncc3)no2)[C@@H](C)C1
758	COc1cc(NC(=O)N2CCC(N3CCN(Cc4ccc(C)cc4)C(=O)C3=O)CC2)cc(OC)c1
719	CCc1noc(NC(C)=O)c1-c1ccc(C)c(S(=O)(=O)Nc2ccccc2)c1
573	Cn1c(=O)n([C@H]2CCN(C(=O)c3ccc(Cn4ccnc4)o3)C2)c2ncccc21
808	CCC(C)N(CC(=O)N(Cc1ccco1)CC1CCCO1)C(=O)c1ccc(OC)cc1 (configuration not stated)
978	CCc1ccccc1NC(=O)C1CCC(=O)N1S(=O)(=O)c1ccc(C)c(C)c1 (configuration not stated)
973	Cc1ccc(CCC(=O)Nc2nc(-c3ccc4c(c3)NC(=O)C(C)O4)cs2)cc1 (configuration not stated)
870	CC1=C(c2ccccc2)S(=O)(=O)N=C1N1CCCN(C(=O)c2cc(C)ccc2C)CC1
1070	COC(=O)c1ccc(OC)c(Cn2cnc3c(-c4ccc(C)cc4)csc3c2=O)c1
1010	COc1ccc(S(=O)(=O)N2CCCC(C(=O)N3CCN(c4ccccc4)CC3)C2)cc1Cl (configuration not stated)
1020	Cc1ccccc1-c1noc(C2CCCN2C(=O)Nc2ccccc2F)n1 (configuration not stated)
680	Cc1ccc(C)c(NC(=O)N2CCCC(Cn3c(C4CC4)nc4cccnc43)C2)c1 (configuration not stated)
849	Cc1ccc(CN2CCN(C3CCN(C(=O)Nc4ccc(F)c(Cl)c4)CC3)C(=O)C2=O)cc1
780	CCc1ccccc1NC(=O)C1CC(=O)N(c2ccc3c(c2)CCN3C(=O)C2CC2)C1 (configuration not stated)
910	O=C(CN1CCc2ccccc2C1C(=O)N1CCCCC1)NCc1ccc(Cl)cc1 (configuration not stated)
816	CCCc1noc(-c2ccc(-n3cnc(C(=O)N4CCCC4)c3)nc2)n1
1150	CCc1ccc(-c2noc(Cn3c(=O)n(-c4cccc(C)c4)c(=O)c4sccc43)n2)cc1
841	COc1ccc(CNC(=O)c2cnc3c(c2)c(=O)n(C)c(=O)n3-c2ccc(OC)cc2)cc1

RP-LC retention time [s]	Compound
921	O=C(Nc1ccc2c(c1)CCC2)C1CC(=O)N(CCc2c[nH]c3ccc(Cl)cc23)C1 (configuration not stated)
606	CCOC(=O)c1ccc(NC(=O)N2CC=C(c3cn(CC)c4ncccc34)CC2)cc1
729	Cc1ccc(C)c(NC(=O)N2CCCC2c2nncn2-c2ccccc2)c1 (configuration not stated)
816	Cc1cccc(CNC(=O)C2CCN(S(=O)(=O)c3ccc(-c4cc(C)[nH]n4)o3)CC2)c1
807	Cn1c(=O)oc2cc(-c3noc(CNC(=O)Cc4ccc(Cl)cc4)n3)ccc21
812	CN1C(=O)c2cc(C(=O)NCCc3ccccc3)nn2CC1(C)C(=O)NC1CCCCC1 (configuration not stated)
1260	O=S(=O)(c1ccc2c(c1)CCC2)N1CCC(c2noc(-c3cccc(F)c3)n2)CC1
1150	CCOc1ccc(-c2nc(C3CC(=O)N(c4ccc(Cl)cc4)C3)no2)cc1OCC (configuration not stated)
797	Cc1nn2c(CNC(=O)c3cccs3)c(-c3ccccc3)nc2s1
987	CCOc1cccc(CNc2cc(-n3nc(C)cc3C)ncn2)c1
813	CC(C)CCNC(=O)c1ccc2c(c1)NC(=O)C1CCCCN21 (configuration not stated)
759	COc1ccc(N2CCN(C(=O)Cn3ccc4c(SCc5ccc(F)cc5)nccc43)CC2)cc1
975	Cc1ccc(CNC(=O)C2CCCN(c3ccc(=O)n(-c4ccc(C)c(Cl)c4)n3)C2)cc1 (configuration not stated)
748	CCn1ccc2c(cc(C(=O)Nc3cccc(OC)c3)n2C)c1=O
592	Cc1cc(CN2CCC(CNC(=O)C(=O)NCc3ccccc3Cl)CC2)c(C)o1
942	Cc1ccc(C)c(N2CCN(c3ccnc(SCC(=O)Nc4c(C)cccc4Cl)n3)CC2)c1
581	CCN1CCN(CCCNC(=O)c2cc(-c3cccnc3)nc3ccc(Br)cc23)CC1
671	CN1CCC2(CC1)CN(C(=O)CCc1nc3ccccc3s1)Cc1ccccc1O2
818	Cc1nn(CC(=O)NCC2CCCO2)c(=O)c2c(-n3cccc3)n(-c3cccc(F)c3)nc12 (configuration not stated)
745	O=C(NCCn1c(=O)n(Cc2ccc(F)cc2)c2cccnc21)c1ccoc1
915	COc1ccc(N2CC(c3nc(-c4ccc5c(c4)oc(=O)n5C(C)C)no3)CC2=O)cc1 (configuration not stated)
984	O=c1n(Cc2ccccc2)nc2c(-c3nc(-c4ccccc4)no3)cccn12
774	CCOc1ccc(NC(=O)Cn2nc(N3CCOCC3)c3ccccc3c2=O)cc1
